Assay [1] relates to E. coli DH5α/pLBII. The assay can be described thus: Broth microdilution MIC assay, empty vector control strain. In kind it is cell-based. To be noted: Escherichia coli, read-out: E. coli DH5α/pLBII Microbiological Activity (MIC). As to the method: To determine the ability of test compounds to potentiate the inhibition of the growth of bacterial strains, classic cell based broth microdilution MIC assays were employed. MIC assays are performed according to CLSI methods except where otherwise noted (CLSI, 2011 and CLSI, 2009). The reference strain S. aureus ATCC 29213 and the hyper-permeable E. coli 901C were used to determine the ability of the PBP compounds to inhibit bacterial growth. Briefly, cryo-preserved bacterial cultures of clinical strains are streaked for isolation on appropriate agar medium, in this case Mueller Hinton II agar. Following incubation to allow formation of colonies these plates are sealed with parafilm and stored refrigerated for up to two weeks. For preparation of assay inocula and to ensure low variability, at least 5 colonies are picked from the agar plates with an inoculating loop and aseptically transferred to a culture tube containing 3 mL of Mueller-Hinton Broth (supplemented with divalent cations to required levels based on Manufacturers' certification). The broth culture is grown for 3-5 hours at 37° C. with shaking at 200 rpm. Meanwhile, 2-fold serial dilutions of test compounds are conducted in a 96 well plate with a final volume of 75 μL per well at 2-fold the final desired concentration. After the dilution plates are set up the growing cultures are then diluted in a cuvette containing MH II broth and the optical density is measured at 600 nm. Inocula are diluted such that 75 μL of this culture in Mueller-Hinton Broth results in a starting bacterial concentration of 5×10^5 CFU/mL when added to the dilution plates. The plates are incubated 16-20 hours at 37° C. The MIC is read visually as the lowest concentration well with no bacterial growth.
To determine if test compounds were affected by CTX-M15, the most abundant extended spectrum β-lactamase in clinical settings worldwide, the inhibition of the growth of an engineered strain of Escherichia coli harboring CTX-M15 was tested. This strain was constructed by cloning the gene encoding CTX-M15 into the NdeI and BamHI restriction endonuclease sites of plasmid pLBII, placing the gene(s) under the control of the Lac promoter. The constructed expression plasmid for CTX-M15 was used to transform competent E. coli DH5a cells to make the engineered strain, including an empty pLBII vector control strain. The classic cell based broth microdilution MIC assay was employed as described above with the addition of control antibiotics, known to be degraded by β-lactamases (Ceftazidime, piperacillin and piperacillin+tazobactam).
For orientation: Dilution methods test growth across graded concentrations, often in twofold steps.

The test system of assay [2] is E. coli DH5α/pLBII-CTX-M15. The assay can be described thus: Broth microdilution MIC assay, engineered strain producing CTX-M15. In kind it is cell-based, Escherichia coli. The note with it: Escherichia coli, read-out: E. coli DH5α/pLBII-CTX-M15 Microbiological Activity (MIC). In short, it runs like this:
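CLSI broth microdilution in cation-supplemented Mueller-Hinton broth, 2-fold compound dilutions, 5×10^5 CFU/mL inoculum, 16-20 h at 37° C, MIC read visually as lowest concentration without growth. E. coli DH5α carries CTX-M15 on pLBII under Lac promoter, or empty pLBII as control.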

For assay [3], the system named is hyper-permeable E. coli 901C. The assay can be described thus: Broth microdilution MIC assay. To be noted: Escherichia coli, read-out: E. coli 901C MIC. In kind it is cell-based. The procedure, abridged: (§1)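 Per CLSI: log-phase cultures (3-5 h, 37° C) seeded at 5×10^5 CFU/mL into cation-supplemented Mueller-Hinton broth containing 2-fold compound dilutions. After 16-20 h at 37° C, MIC taken visually as lowest growth-free well, for S. aureus ATCC 29213 and E. coli 901C.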

Assay [4] has as its system S. aureus ATCC 29213. The assay can be described thus: Broth microdilution MIC assay. In kind it is cell-based. The note with it: Staphylococcus aureus. The procedure, abridged:
as §1

Setting [5] is: ATCC29213, broth microdilution, 16-20 hours at 37° C., read-out: S. aureus 29213 MIC.

Like-named read-outs stand apart in the source and are kept apart here.

As to `CCN1C(=O)CN(C(=O)NC(C(=O)N[C@H]2Cc3cccc(C(=O)O)c3OB2O)c2csc(N)n2)CC1=O` (stereo partly drawn) [Example 64, (3R)-3-(2-(2-aminothiazol-4-yl)-2-(4-ethyl-3,5-dioxopiperazine-1-carboxamido)acetamido)-2-hydroxy-3,4-dihydro-2H-benzo[e][1,2]oxaborinine-8-carboxylic acid], the MIC in assay [1] is 128 to 256 µg/mL; in assay [2] it was 128 to 256 µg/mL; in assay [3], less than 64 µg/mL; in assay [4] (setting [5]), more than 128 µg/mL.
`COc1ccc(C(=O)NC(C(=O)N[C@H]2Cc3cccc(C(=O)O)c3OB2O)c2csc(N)n2)c(=O)[nH]1` (stereo partly drawn) [Example 46, (3R)-3-(2-(2-aminothiazol-4-yl)-2-(6-methoxy-2-oxo-1,2-dihydropyridine-3-carboxamido)acetamido)-2-hydroxy-3,4-dihydro-2H-benzo[e][1,2]oxaborinine-8-carboxylic acid]: the MIC in assay [1] is 128 to 256 µg/mL; in assay [2], 128 to 256 µg/mL; in assay [3] it was less than 64 µg/mL; in assay [4] (setting [5]), more than 128 µg/mL.
As to `Nc1nc(C(NS(=O)(=O)N2CCOCC2)C(=O)N[C@H]2Cc3cccc(C(=O)O)c3OB2O)cs1` (stereo partly drawn) [Example 24, (3R)-3-(2-(2-aminothiazol-4-yl)-2-(morpholine-4-sulfonamido)acetamido)-2-hydroxy-3,4-dihydro-2H-benzo[e][1,2]oxaborinine-8-carboxylic acid], the MIC in assay [1] is 128 to 256 µg/mL; in assay [2], 128 to 256 µg/mL; in assay [3] it was less than 64 µg/mL; in assay [4] (setting [5]) it was more than 128 µg/mL.
As to `N[C@@H](C(=O)N[C@H]1Cc2cccc(C(=O)O)c2OB1O)c1ccccc1` [Example 2, (R)-3-((R)-2-amino-2-phenylacetamido)-2-hydroxy-3,4-dihydro-2H-benzo[e][1,2]oxaborinine-8-carboxylic acid], the MIC is more than 512 µg/mL in assay [1], more than 512 µg/mL in assay [2], more than 128 µg/mL in assay [3] and more than 128 µg/mL in assay [4] (setting [5]).
In the case of `CN(C)S(=O)(=O)NC(C(=O)N[C@H]1Cc2cccc(C(=O)O)c2OB1O)c1csc(N)n1` (stereo partly drawn) [Example 23, (3R)-3-(2-(2-aminothiazol-4-yl)-2-((N,N-dimethylsulfamoyl)amino)acetamido)-2-hydroxy-3,4-dihydro-2H-benzo[e][1,2]oxaborinine-8-carboxylic acid], the MIC in assay [1] was 128 to 256 µg/mL; in assay [2], 128 to 256 µg/mL; in assay [3], less than 64 µg/mL; in assay [4] (setting [5]), more than 128 µg/mL.
As to `Nc1nc(C(NC(=O)c2cscn2)C(=O)N[C@H]2Cc3cccc(C(=O)O)c3OB2O)cs1` (stereo partly drawn) [Example 16, (3R)-3-(2-(2-aminothiazol-4-yl)-2-(thiazole-4-carboxamido)acetamido)-2-hydroxy-3,4-dihydro-2H-benzo[e][1,2]oxaborinine-8-carboxylic acid], the MIC in assay [1] was 128 to 256 µg/mL; in assay [2], 128 to 256 µg/mL; in assay [3], less than 64 µg/mL; in assay [4] (setting [5]), 64 to 128 µg/mL.
On to `Cc1cc(C)n2c1C=C1C=CC(CCC(=O)NCCON=C(C(=O)N[C@H]3Cc4cccc(C(=O)O)c4OB3O)c3csc(N)n3)=[N+]1[B-]2(F)F` [Example 13, (R)-3-(2-(2-aminothiazol-4-yl)-2-((2-(3-(5,5-difluoro-7,9-dimethyl-5H-4λ^4,5λ^4-dipyrrolo[1,2-c:2′,1′-f][1,3,2]diazaborinin-3-yl)propanamido)ethoxy)imino)acetamido)-2-hydroxy-3,4-dihydro-2H-benzo[e][1,2]oxaborinine-8-carboxylic acid], for which the MIC in assay [1] was more than 512 µg/mL; in assay [2], more than 512 µg/mL; in assay [3], more than 128 µg/mL; in assay [4] (ATCC29213, read-out: S. aureus 29213 MIC), more than 128 µg/mL.
In the case of `Nc1nc(C(NC(=O)Cc2ncccn2)C(=O)N[C@H]2Cc3cccc(C(=O)O)c3OB2O)cs1` (stereo partly drawn) [Example 21, (3R)-3-(2-(2-aminothiazol-4-yl)-2-(2-(pyrimidin-2-yl)acetamido)acetamido)-2-hydroxy-3,4-dihydro-2H-benzo[e][1,2]oxaborinine-8-carboxylic acid], the MIC in assay [1] is more than 512 µg/mL; in assay [2], more than 512 µg/mL; in assay [3], 64 to 128 µg/mL; in assay [4] (setting [5]), 64 to 128 µg/mL.
